Data: patent US20120034613A1, “Apparatus and Method for Testing Relationships Between Gene Expression and Physical Appearance of Skin” (NSE Products, Inc., priority 2010, published 2012)

Tested on: EpidermFT™ Skin Model (EFT-400) full thickness skin cultures
Test: Affymetrix GeneChip HG U133 Plus 2.0 microarray global gene expression, agent-exposed vs untreated skin cultures
Type: cell-based, human
Conditions: 0.5% vs untreated, 24 hr; down

Question: With `OCc1ccccc1O[C@@H]1O[C@H](CO)[C@@H](O)[C@H](O)[C@H]1O` [Salicin, 2-(Hydroxymethyl)phenyl β-D-glucospyranoside] as the compound, how does the “Fold change HAS3 (223541_at)” value read?
Answer: The value was 3.713.

Question: And the “Fold change HIP1R (209558_s_at)” value?
Answer: Its value is 3.322.

Question: And the “Fold change HMGCR (202539_s_at)” value?
Answer: Its value is 3.621.

Question: And the “Fold change HMGCR (202540_s_at)” value?
Answer: Its value is 3.753.

Question: What about the “Fold change HMOX1 (203665_at)” value of the same compound?
Answer: Its value is 3.193.

Question: And the “Fold change HOMER2 (217080_s_at)” value?
Answer: Its value is 3.789.

Question: And the “Fold change HOOK1 (219976_at)” value?
Answer: Its value is 3.54.

Question: What about the “Fold change HS3ST6 (239547_at)” value of the same compound?
Answer: The value was 3.557.

Question: What about the “Fold change HSD17B1 (205829_at)” value of the same compound?
Answer: The value was 3.15.

Question: What about the “Fold change HYAL4 (220249_at)” value of the same compound?
Answer: Its value is 3.117.

Question: What about the “Fold change IL1F5 (222223_s_at)” value of the same compound?
Answer: The value was 3.177.

Question: What about the “Fold change IL28RA (244261_at)” value of the same compound?
Answer: Its value is 3.252.

Question: What about the “Fold change IRX3 (229638_at)” value of the same compound?
Answer: The value was 3.118.

Question: And the “Fold change ITGAM (205786_s_at)” value?
Answer: Its value is 3.645.

Question: And the “Fold change JUB (225806_at)” value?
Answer: Its value is 3.698.

Question: What about the “Fold change JUB (225807_at)” value of the same compound?
Answer: Its value is 3.198.

Question: And the “Fold change JUB (1553764_a_at)” value?
Answer: The value was 3.662.

Question: And the “Fold change KCTD11 (235857_at)” value?
Answer: Its value is 3.157.

Question: And the “Fold change KIAA0485 (214295_at)” value?
Answer: The value was 3.094.

Question: What about the “Fold change KIAA0513 (204546_at)” value of the same compound?
Answer: The value was 3.413.

Question: And the “Fold change KIAA0746 /// SERINC2 (212314_at)” value?
Answer: Its value is 3.628.

Question: What about the “Fold change KIAA1239 (230765_at)” value of the same compound?
Answer: Its value is 3.239.

Question: What about the “Fold change KIAA1609 (65438_at)” value of the same compound?
Answer: Its value is 3.527.

Question: And the “Fold change KIAA1609 (221843_s_at)” value?
Answer: The value was 3.461.

Question: And the “Fold change KIF21A (226003_at)” value?
Answer: The value was 3.77.

Question: And the “Fold change KIF21A (231875_at)” value?
Answer: The value was 3.78.

Question: And the “Fold change KLF5 (209211_at)” value?
Answer: The value was 3.563.

Question: And the “Fold change KLHL18 (1557165_s_at)” value?
Answer: The value was 3.408.

Question: And the “Fold change KLK11 (205470_s_at)” value?
Answer: Its value is 3.318.

Question: What about the “Fold change KLK13 (205783_at)” value of the same compound?
Answer: The value was 3.619.

Question: What about the “Fold change KRT15 (204734_at)” value of the same compound?
Answer: The value was 3.6.

Question: What about the “Fold change KRT34 (206969_at)” value of the same compound?
Answer: Its value is 3.171.

Question: What about the “Fold change LAD1 (203287_at)” value of the same compound?
Answer: Its value is 3.072.

Question: What about the “Fold change LOC283070 (226382_at)” value of the same compound?
Answer: The value was 3.685.

Question: And the “Fold change LOC653602 (229546_at)” value?
Answer: Its value is 3.058.

Question: And the “Fold change LOC728377 (228596_at)” value?
Answer: Its value is 3.786.

Question: What about the “Fold change LOC100128178 (232090_at)” value of the same compound?
Answer: The value was 3.299.

Question: And the “Fold change LOC100128443 /// MAST4 (225613_at)” value?
Answer: Its value is 3.231.

Question: What about the “Fold change LOC100128501 (229296_at)” value of the same compound?
Answer: Its value is 3.452.

Question: What about the “Fold change LOC100130885 (236213_at)” value of the same compound?
Answer: The value was 3.36.

Question: And the “Fold change LPCAT2 (227889_at)” value?
Answer: Its value is 3.256.

Question: What about the “Fold change LYPLA1 (203007_x_at)” value of the same compound?
Answer: Its value is 3.221.

Question: What about the “Fold change MACC1 (232151_at)” value of the same compound?
Answer: Its value is 3.738.

Question: What about the “Fold change MACC1 (1566766_a_at)” value of the same compound?
Answer: The value was 3.181.

Question: What about the “Fold change MBD1 (241813_at)” value of the same compound?
Answer: The value was 3.076.

Question: What about the “Fold change ME1 (204058_at)” value of the same compound?
Answer: The value was 3.413.

Question: What about the “Fold change ME1 (204059_s_at)” value of the same compound?
Answer: The value was 3.029.

Question: And the “Fold change MICALCL (243611_at)” value?
Answer: Its value is 3.335.

Question: And the “Fold change MICALL1 (221779_at)” value?
Answer: The value was 3.602.

Question: What about the “Fold change MKNK2 (223199_at)” value of the same compound?
Answer: The value was 3.427.

Question: And the “Fold change MLLT4 (224685_at)” value?
Answer: The value was 3.09.

Question: What about the “Fold change MPP7 (1564308_a_at)” value of the same compound?
Answer: Its value is 3.034.

Question: And the “Fold change MPZL2 (203780_at)” value?
Answer: Its value is 3.468.

Question: What about the “Fold change MPZL2 (230518_at)” value of the same compound?
Answer: The value was 3.326.

Question: What about the “Fold change MSMB (207430 s_at)” value of the same compound?
Answer: The value was 3.689.

Question: What about the “Fold change MTUS1 (212095_s_at)” value of the same compound?
Answer: The value was 3.034.

Question: What about the “Fold change MTUS1 (212096_s_at)” value of the same compound?
Answer: The value was 3.773.

Question: And the “Fold change MYO5B (225301_s_at)” value?
Answer: Its value is 3.815.

Question: And the “Fold change NDRG2 (206453_s_at)” value?
Answer: The value was 3.922.

Question: And the “Fold change NDRG2 (214279_s_at)” value?
Answer: The value was 3.705.

Question: And the “Fold change NLRX1 (1553695_a_at)” value?
Answer: The value was 3.887.

Question: And the “Fold change NOL3 (221566_s_at)” value?
Answer: The value was 3.704.

Question: And the “Fold change NOL3 (221567_at)” value?
Answer: The value was 3.416.

Question: And the “Fold change NT5C3 (223298_s_at)” value?
Answer: Its value is 3.641.

Question: What about the “Fold change OMG (238720_at)” value of the same compound?
Answer: Its value is 3.099.

Question: And the “Fold change P2RY2 (206277_at)” value?
Answer: Its value is 3.679.

Question: And the “Fold change P11 (206605_at)” value?
Answer: The value was 3.785.

Question: And the “Fold change PANK1 (226649_at)” value?
Answer: Its value is 3.261.

Question: What about the “Fold change PCDH7 (228640_at)” value of the same compound?
Answer: The value was 3.307.

Question: And the “Fold change PCSK6 (210553_x_at)” value?
Answer: Its value is 3.573.

Question: And the “Fold change PITX2 (207558_s_at)” value?
Answer: The value was 3.504.

Question: And the “Fold change PLCXD1 (218951_s_at)” value?
Answer: Its value is 3.092.

Question: What about the “Fold change PLLP (204519_s_at)” value of the same compound?
Answer: The value was 3.781.

Question: What about the “Fold change PLXDC2 (227276_at)” value of the same compound?
Answer: The value was 3.44.

Question: What about the “Fold change PLXNA2 (213030_s_at)” value of the same compound?
Answer: The value was 3.036.

Question: And the “Fold change PNPLA1 (1553364_at)” value?
Answer: The value was 3.553.

Question: And the “Fold change PPID (228469_at)” value?
Answer: The value was 3.327.

Question: What about the “Fold change PPP1R13L (218849_s_at)” value of the same compound?
Answer: Its value is 3.053.

Question: What about the “Fold change PPP2R2C (223574_x_at)” value of the same compound?
Answer: The value was 3.091.

Question: What about the “Fold change PSG4 (208191_x_at)” value of the same compound?
Answer: Its value is 3.458.

Question: And the “Fold change PSPH (205048_s_at)” value?
Answer: Its value is 3.381.

Question: And the “Fold change PTGER3 (210375_at)” value?
Answer: The value was 3.745.

Question: What about the “Fold change PTPN3 (203997_at)” value of the same compound?
Answer: Its value is 3.799.

Question: What about the “Fold change PTPN3 (227944_at)” value of the same compound?
Answer: The value was 3.077.

Question: What about the “Fold change RAB3D (225001_at)” value of the same compound?
Answer: The value was 3.306.

Question: What about the “Fold change RAB7B (230266_at)” value of the same compound?
Answer: The value was 3.207.

Question: And the “Fold change RAET1E (1552777_a_at)” value?
Answer: The value was 3.558.

Question: And the “Fold change RASAL1 (219752_at)” value?
Answer: Its value is 3.507.

Question: And the “Fold change RBM35A (219121_s_at)” value?
Answer: The value was 3.786.

Question: And the “Fold change RDH13 (1559190_s_at)” value?
Answer: The value was 3.726.

Question: What about the “Fold change RHBDL2 (1554895_a_at)” value of the same compound?
Answer: The value was 3.193.

Question: What about the “Fold change RHOD (209885_at)” value of the same compound?
Answer: Its value is 3.12.

Question: And the “Fold change RHOU (223168_at)” value?
Answer: Its value is 3.283.

Question: What about the “Fold change S1PR5 (230464_at)” value of the same compound?
Answer: Its value is 3.789.

Question: And the “Fold change S100P (204351_at)” value?
Answer: The value was 3.66.

Question: And the “Fold change SCD (200832_s_at)” value?
Answer: The value was 3.77.

Question: What about the “Fold change SCD /// SCDOS (223839_s_at)” value of the same compound?
Answer: Its value is 3.34.

Question: And the “Fold change SCN4B (236359_at)” value?
Answer: The value was 3.105.

Question: What about the “Fold change SDC1 (201287_s_at)” value of the same compound?
Answer: The value was 3.32.

Question: What about the “Fold change SEPT8 (209000_s_at)” value of the same compound?
Answer: Its value is 3.657.

Question: What about the “Fold change SERPINB3 (209719_x_at)” value of the same compound?
Answer: The value was 3.665.

Question: What about the “Fold change SERPINB3 (209720_s_at)” value of the same compound?
Answer: The value was 3.147.

Question: And the “Fold change SERPINB7 (206421_s_at)” value?
Answer: The value was 3.623.

Question: And the “Fold change SERPINB12 (1553057_at)” value?
Answer: The value was 3.711.

Question: What about the “Fold change SFT2D2 (214838_at)” value of the same compound?
Answer: The value was 3.904.

Question: And the “Fold change SGPL1 (212322_at)” value?
Answer: The value was 3.184.

Question: What about the “Fold change SLC4A11 (223748_at)” value of the same compound?
Answer: Its value is 3.82.

Question: And the “Fold change SLC5A1 (242773_at)” value?
Answer: The value was 3.714.

Question: What about the “Fold change SLC22A3 (205421_at)” value of the same compound?
Answer: The value was 3.516.

Question: What about the “Fold change SLC38A1 (224579_at)” value of the same compound?
Answer: Its value is 3.045.

Question: What about the “Fold change SLC38A4 (220786 s_at)” value of the same compound?
Answer: Its value is 3.844.

Question: And the “Fold change SMPD3 (231732_at)” value?
Answer: Its value is 3.594.

Question: What about the “Fold change SORL1 (203509_at)” value of the same compound?
Answer: Its value is 3.285.

Question: And the “Fold change SPRR3 (232082_x_at)” value?
Answer: Its value is 3.303.
